How the values were obtained:
[1] = Free radical scavenging activity by DPPH assay; type: biochemical; settings: optical density at 540 nm; lower SC50 = higher activity
Protocol: Each of the extracts of Examples and Comparative Examples was suspended in purified water to evaluate a free radical scavenging activity of each of the extracts. A DPPH assay is a method of measuring an optical density at 540 nm to measure a level of discoloration caused by an inhibitor scavenging stable 2,2-diphenyl-1-picrylhydrazyl (DPPH) radicals. Vitamin C was used as the control, and a 50% scavenging concentration (SC50) of the DPPH radicals was measured. Then, the measured SC50 of the DPPH radicals was compared to that of the control (Table 3). In particular, the free radical scavenging activity of the sample of Example 1 at different concentrations was measured, and compared to that of the control (FIG. 1).

[2] = Free radical scavenging activity by ABTS assay; type: biochemical; settings: measured at 732 nm; lower SC50 = higher activity
Protocol: Each of the extracts of Examples and Comparative Examples was suspended in purified water to evaluate a free radical scavenging activity of each of the extracts. […] Vitamin C was used as the control, and a 50% scavenging concentration (SC50) of the ABTS radicals was measured. Then, the measured SC50 of the ABTS radicals was compared to that of the control (Table 4). In particular, the free radical scavenging activities at different concentrations were measured in the case of Example 1, and compared to that of the control (FIG. 1).

women = test: Skin elasticity-improving effect of formulated creams (Cutometer MPA580); type: in vivo; settings: cream around the eyes twice a day for 12 weeks; Cutometer MPA580 R8 value
Protocol: A skin elasticity-improving effect of the cosmetic composition including each of the samples obtained in Examples and Comparative Examples was evaluated. The respective samples were formulated into creams having the same compositions. In this case, only the samples of Examples 1 to 9 and Comparative Examples 1 to 12 differed. Healthy women over the age of 20 years old (with an average age of 37 years old) were divided into groups, and instructed to apply the formulated creams of Examples and Comparative Examples onto their faces under conditions of a temperature of 24 to 26° C. and a humidity of 75%. The formulated creams were applied around the eyes twice (morning and evening) a day for 12 weeks, and the skin elasticity was measured using a skin elastometer (Cutometer MPA580 commercially available from Courage+Khazaka Electronic GmbH, Germany). The test results were expressed as R8 (R8 (week 12)−R8 (week 0)) values of the Cutometer MPA580, and the R8 values represented properties such as skin viscoelasticity.

B16F10 cells = test: Melanin content assay (amount of produced melanin); type: cell-based; settings: α-MSH stimulated, sample 200 μg/mL (50 mg/L), 48 hours, arbutin 200 μg/mL as control
Protocol: To check a whitening effect of the samples of Examples and Comparative Examples, an ability of the samples of Examples and Comparative Examples to inhibit melanogenesis was evaluated using a melanin content assay (Eisinger M et al., 1982; Siegrist W and Eberle A N, 1986). Each of the samples of Examples and Comparative Examples was suspended at a concentration of 50 mg/L in purified water, and an amount of produced melanin was determined.
B16F10 cells were seeded at a concentration of 1.5×10^5 cells/well in a 60 mm culture dish, and then cultured for 24 hours. A melanogenesis-stimulating hormone, α-MSH (Sigma-Aldrich, St. Louis, Mo., USA), and each of the samples of Examples and Comparative Examples were added to a medium at a concentration of 200 μg/mL (Virador V M et al., 1999).
After 48 hours had elapsed, the cells were harvested, and then washed once with PBS. Thereafter, 120 μL of a 1 N NaOH lysis buffer was added thereto, and the resulting mixture was heated at 95° C. for 10 minutes to lyse the cells. The optical density at a wavelength of 450 nm was measured using a microplate reader. Here, arbutin at a concentration of 200 μg/mL was used as the control (Table 6).
In particular, the melanin production rates at different concentrations were measured in the case of Example 1 (FIG. 1).

| Structure (SMILES) | 50% Scavenging Concentration (SC50) of DPPH Radicals [1] | 50% Scavenging Concentration (SC50) of ABTS Radicals [2] | Skin elasticity-improving effect, R8 (week 12) − R8 (week 0) (women) | Melanin production rate (B16F10 cells) |
| --- | --- | --- | --- | --- |
| O=C1O[C@H]([C@@H](O)CO)C(O)=C1O [Control (Vitamin C), Vitamin C] | 8.7 µg/mL | 8.7 µg/mL | 0.92 | – |
| OC[C@H]1O[C@@H](Oc2ccc(O)cc2)[C@H](O)[C@@H](O)[C@@H]1O [Positive control, arbutin] | – | – | – | 38.2% |
